# Article PMC5053593, “Tetrahydrobiopterin Supplementation: Elevation of Tissue Biopterin Levels Accompanied by a Relative Increase in Dihydrobiopterin in the Blood and the Role of Probenecid-Sensitive Uptake in Scavenging Dihydrobiopterin in the Liver and Kidney of Rats” (PLoS ONE, 2016)
# Counter-ions that a name gives are not always drawn. Like-named read-outs stand apart in the source and are kept apart here.
# Tests used:
# [1] = rat, in vivo
# Text: (§1) In the following sample acquisition, special care to ensure minimal oxidation of BH4 was taken throughout the following procedure. In brief, the abdomen was opened and cannulae were set in place for collecting bile and urine. The blood samples were drawn from the tail vein into a heparin-coated capillary containing a solution of 0.1 M ascorbic acid (less than 5% by volume), and they were then subjected to differential iodine oxidation for BP determination. The urine was collected at intervals from the bladder through an indwelling needle connected to an airtight syringe in which the dead space had been filled with saline containing 50 mM each of ascorbic acid and EDTA (pH 6.8). The urine was immediately mixed with 9 volumes of 10 mM HCl containing 5 mM antioxidant. The aliquots were then subjected to quantitation of BP and creatinine. BP excretion was expressed as BP/creatinine (μmol/mg creatinine) based on the BP concentration (nmol/mL) divided by the time-matched creatinine level (μg/mL). In calculating the cumulative total, the amounts of BP in each fraction were added. Calculations were based on the BP concentration (nmol/mL) multiplied by the respective urine volume (mL) produced between each sampling time point regardless of the creatinine concentration. The bile was also collected from individual rats through a cannula in the bile duct and was immediately subjected to BP determination. The cumulative BP amount was calculated by adding up all samples measured.
# (§2) Biopterin was determined essentially according to Fukushima and Nixon and modified as described previously. Animal tissues contain at least 4 chemical species of the reduced biopterin family; BH4-4a-carbinolamine (or 4a-hydroxy-tetrahydrobiopterin), quinonoid dihydrobiopterin and 7,8-dihydrobiopterin as well as BH4. The Fukushima and Nixon method includes tissue homogenization and extraction of pterin compounds followed by measurement of amount of fully oxidized biopterin after differential iodine oxidation under acid and alkaline conditions. With their method, the biopterin quantity remaining after the acid-oxidation was taken as the total biopterin (BP = “BH4” + “BH2” + “oxidized biopterin”) and that which remained after the alkaline-oxidation, as 7,8-dihydrobiopterin (BH2) plus oxidized biopterin. […] Accordingly, in this study, the biopterin amount measured after the acid iodine oxidation was taken as the sum of “BH4” and “BH2” (“BP” = “BH2” + “BH4”), and that after the alkaline oxidation, as the amount of “BH2”. The difference was therefore taken as the “BH4” amount. The BH4 fraction (BH4%; the percentage of BH4 in BP) was calculated for each individual sample. The amounts of BH4 and BH2 were calculated based on molecular weights of 241 g/mol and 239 g/mol, respectively.
# The urinary creatinine concentration was measured using a creatininase-HMMPS method according to the manufacturer’s instructions (L-type Creatinine M; Wako Pure Chemical Industries, Osaka, Japan).
# Data were expressed as means ±S.E. The statistical significance of two groups with non-repeated determination was analyzed by Student’s t-test. The significance of difference between determinations at different times with individual animal groups was analyzed by the Paired t-test. Significance of difference between three groups was analyzed by Tukey’s test. All the statistical analyses were performed with Pharmaco Basic Ver.15.0.1 (Scientist Co. Ltd., Tokyo). Using results of pterin kinetics, exponential least square approximation was performed with Excel software using Microsoft Office for Mac.
# [2] = both, Sprague-Dawley, rat, in vivo
# Text: as §1
# Biopterin was determined essentially according to Fukushima and Nixon and modified as described previously. […] With their method, the biopterin quantity remaining after the acid-oxidation was taken as the total biopterin (BP = “BH4” + “BH2” + “oxidized biopterin”) and that which remained after the alkaline-oxidation, as 7,8-dihydrobiopterin (BH2) plus oxidized biopterin. […] Accordingly, in this study, the biopterin amount measured after the acid iodine oxidation was taken as the sum of “BH4” and “BH2” (“BP” = “BH2” + “BH4”), and that after the alkaline oxidation, as the amount of “BH2”. […] The BH4 fraction (BH4%; the percentage of BH4 in BP) was calculated for each individual sample. The amounts of BH4 and BH2 were calculated based on molecular weights of 241 g/mol and 239 g/mol, respectively.
# Data were expressed as means ±S.E. The statistical significance of two groups with non-repeated determination was analyzed by Student’s t-test. The significance of difference between determinations at different times with individual animal groups was analyzed by the Paired t-test. Significance of difference between three groups was analyzed by Tukey’s test. […]
# [3] = both, Sprague-Dawley, rat, in vivo; remark: listed apart in the source
# Protocol: Each blood sample was divided into three portions; one served as a “whole blood” specimen, the second was for the hematocrit determination, and the third was centrifuged (10,000 rpm, 4°C, 5 min) to separate red blood cells (RBCs) from the plasma. The whole blood, plasma, and RBCs were separately subjected to differential iodine oxidation for the BP determination described below. The results were expressed as the amount of BP per unit volume of the original blood sample (plasma + RBC, mL) based on the hematocrit value. The kidneys, liver, and whole brain were removed without prior perfusion, rinsed with saline, blotted, weighed, frozen in liquid nitrogen, and then stored at -80°C until BP determination. BP carryover with the blood was ignored in the liver and kidney. However, for the brain, the BP carryover was estimated using an average blood inclusion of 1.2% (v/w), which was determined by a comparison of the heme content of the blood and brain homogenates based on light absorbance at 415 nm.
# as §2
# [4] = parameters: method as in PMID 22318121, PMID 22318121; details: cited from earlier work
compound,measurement,setting,value
"C[C@H](O)[C@H](O)[C@H]1CNc2nc(N)[nH]c(=O)c2N1 [6RBH4, (6R)-L-erythro-5,6,7,8-tetrahydrobiopterin dihydrochloride]",Urinary BP outflow,"[1]; both, Sprague-Dawley",1840 ± 250 nmol
same,Urinary BP outflow as % of gross outflow obtained by 270 min,"[1]; both, Sprague-Dawley",about 58%
same,Urinary BH4%,"[1]; both, Sprague-Dawley, 30 min",95 ± 1%
same,Urinary BH4%,"[1]; both, Sprague-Dawley, 90 min",87 ± 2%
same,Urinary BH4%,"[1]; both, Sprague-Dawley, 240 min",ca. 94%
same,Creatinine-based urinary BP AUC0–270,"[1]; iv, 5 mg/kg",731 (μmol/mg Cr)•min
same,Biliary BH4%,[2],~95%
same,"Biliary BP outflow fit, rate constant k",[2],0.007 min⁻¹
same,C0,[2],47.2 µM
same,Cumulative excretion of BP in the bile as % of that in the urine,[2],about 3%
same,BH4% in blood,[3]; 30 min,93.9 ±0.6%
same,BH4% in kidney,[3]; 30 min,98.0 ±0.2%
same,BP (nmol) per organ,[3]; 30 min,76.8 nmol
same,"BP (nmol), sub-total of liver, blood, kidneys, brain",[3]; 30 min,515 nmol
same,Brain BP increase over untreated rats,[3]; 30 min,about 43%
same,Kidney BP over the initial value,[3]; 30 min,58 fold
same,Liver BP content,[3]; 30 min,53.3 nmol/g
same,Liver BP over the initial value,[3]; 30 min,9.1 fold
same,BH4% in blood,[3]; 120 min,96.2 ±0.1%
same,BH4% in liver,[3]; 120 min,98.8 ±0.1%
same,BP (nmol) per organ,[3]; 120 min,39.5 nmol
same,"BP (nmol), sub-total of liver, blood, kidneys, brain",[3]; 120 min,325 nmol
same,"Urinary BP flow, glomerular filtration rate constant k",[4],0.013 min⁻¹
same,"Urinary BP flow, observed gross rate constant k",[4],0.043 min⁻¹
same,"Urinary BP flow, tubular secretion rate constant k",[4]; gross minus glomerular rate constant,0.030 min⁻¹
